*1 amine or outer side, *2 acyl side, *3 side chain or, on linkers, in order; H or OH if unused. Where a SMILES comes first, the peptide text is derived from it. Bridges are numbered along the chain shown (N, C = ends). [ ]: non-standard residue; d: D form. The star is where a group is joined. X1 = COc1cc2cc(c1Cl)N(C)C(=O)C[C@H](OC(=O)[C@H](C)N(C)C(=O)CCSSC(C)CCC(=O)*)[C@]1(C)O[C@H]1[C@H](C)[C@@H]1C[C@@](O)(NC(=O)O1)[C@H](OC)/C=C/C=C(\C)C2; 1Nal = N[C@@H](Cc1cccc2ccccc12)C(=O)O; TBMB = c1c(C[*:1])cc(C[*:3])cc1C[*:2]; Tle = CC(C)(C)[C@H](N)C(=O)O; βAla = NCCC(=O)O; Sar = CNCC(=O)O
Experiments:
[1] = tested on: HCC1806 xenograft; experiment: In vivo efficacy of BT1718 in HCC1806 xenograft; set-up: species or system Mus Musculus; key to Best response at 10 mg/kg: CR complete response; PR partial response
Procedure: The objective of this study was to evaluate the in vivo anti-tumor efficacy of BT1718in treatment of HT1080, NCI-H292, NCI-H1975, MDA-MB-231, HCC1806, RPMI2650, HCT-15, HT-29 and SNU-16 xenograft in BALB/c nude mice.
The HT1080, NCI-H292, NCI-H1975, MDA-MB-231, HCC1806, RPMI2650, HCT-15, HT-29 and SNU-16 tumor cells were maintained in vitro as a monolayer culture in medium supplemented with 10% heat inactivated fetal bovine serum at 37° C. in an […]. The tumor cells will be routinely subcultured twice weekly by trypsin-EDTA treatment. The cells growing in an exponential growth phase will be harvested and counted for tumor inoculation.
Mouse was inoculated subcutaneously at the right flank with tumor cells for tumor development. The animals were randomized and treatment was started when the average tumor reaches certain volume for the efficacy study, the inoculating cell amounts and starting tumor size were shown as below in Table 9. The test article administration and the animal numbers in each group were shown in the experimental design in Table 10.
All the procedures related to animal handling, care and the treatment in the study were performed according to the guidelines of the Association for Assessment and Accreditation of Laboratory Animal Care (AAALAC). At the time of routine monitoring, the animals were daily checked for any effects of tumor growth and treatments on normal behavior such as mobility, food and water consumption (by looking only), body weight gain/loss (body weights were measured every day), eye/hair matting and any other abnormal effect as stated in the protocol. Death and observed clinical signs were recorded on the basis of the numbers of animals within each subset.
The major endpoint was to see if the tumor growth could be delayed or mice could be cured. Tumor size was measured three times weekly in two dimensions using a caliper, and the volume was expressed in mm^3 using the formula: V=0.5 a×b^2 where a and b are the long and short diameters of the tumor, respectively. The tumor size was then used for calculations of T/C value. The T/C value (in percent) is an indication of antitumor effectiveness; T and C are the mean volumes of the treated and control groups, respectively, on a given day.
TGI was calculated for each group using the formula: TGI (%)=[1−(Ti−T0)/(Vi−V0)]×100; Ti is the average tumor volume of a treatment group on a given day, T0 is the average tumor volume of the treatment group on the day of treatment start, Vi is the average tumor volume of the vehicle control group on the same day with Ti, and V0 is the average tumor volume of the vehicle group on the day of treatment start.
Summary statistics, including mean and the standard error of the mean (SEM), are provided for the tumor volume of each group at each time point.
Statistical analysis of difference in tumor volume among the groups was conducted on the data obtained at the best therapeutic time point after the final dose.
A one-way ANOVA was performed to compare tumor volume among groups, and when a significant F-statistics (a ratio of treatment variance to the error variance) was obtained, comparisons between groups were carried out with Games-Howell test. All data were analyzed using Prism. P<0.05 was considered to be statistically significant.

[2] = tested on: HT1080 cell line; experiment: In vitro cytotoxicity, ATP endpoint assay after 72 hours incubation; assay type: cell-based; conditions: HT-1080 cells
Procedure: To evaluate the in vitro cytotoxicity of BT1718 and BT1721 in an HT1080 cell line using an ATP endpoint assay after 72 hours incubation.
Cells were seeded in 96 well plates (75 μl/well, HT1080=7500−15000 cell/well) and incubated overnight at 37° C.+5% CO2.
The day after cell seeding, serial dilutions (1:5) of BT1718 and BT1721 were prepared in DMSO and diluted 1:71 in cell culture media to give 4× final concentrations. Twenty five μl/well was added to the cells (2 μM or 5 μM top final concentration of BT1718 and 2 μM or 5 μM top final concentration of BT1721, <0.6% final DMSO).
Cells were 30-50% confluent upon dosing. Control wells containing 5 μM final concentration of staurosporine (positive control), lysis buffer (1% NP40, 20 mM Tris pH8, 137 mM NaCl, 10% glycerol, 2 mM EDTA, 1 mM Na Orthovanadate, 10 μg/ml leupeptin, 10 μg/ml aprotinin) positive control or media (negative control), were also included. Plates were sealed with gas permeable seals and incubated at 37° C.+5% CO2 for 72 hours. No wash steps were performed.
After a total of 72 hours after dosing, ATPLite reagent (Perkin Elmer) was equilibrated to room temperate and reconstituted in the supplied buffer as per the manufacturer's instructions. One hundred μl 1× detection reagent was added per well. Plates were sealed, protected from light and shaken gently for 20 minutes to ensure complete cell lysis before luminescence was read using a BMG Pherastar FS plate reader. […] Data was analysed using GraphPad Prism. Non-linear regression fit was used to calculate a relative IC50 for each toxic agent: Y=Bottom+(Top−Bottom)/(1+10^((Log Ic50−X)*HillSlope)) where the IC50 is defined as 50% of the total cell kill achieved at the top concentration of toxin.

COc1cc2cc(c1Cl)N(C)C(=O)C[C@H](OC(=O)[C@H](C)N(C)C(=O)CCSSC(C)CCC(=O)NCCC(=O)N(C)CC(=O)N(C)CC(=O)N(C)CC(=O)N(C)CC(=O)N(C)CC(=O)N(C)CC(=O)N(C)CC(=O)N(C)CC(=O)N(C)CC(=O)N(C)CC(=O)N[C@@H](C)C(=O)N[C@H]1CSCc3cc4cc(c3)CSC[C@H](NC(=O)[C@@H](C)NC(=O)[C@H](Cc3cccc5ccccc35)NC(=O)[C@H](CCC(=O)O)NC(=O)[C@H](CC(N)=O)NC(=O)[C@@H](C)NC1=O)C(=O)N[C@@H](CCC(=O)O)C(=O)N[C@@H](CC(=O)O)C(=O)N[C@@H](Cc1ccccc1)C(=O)N[C@@H](Cc1ccc(O)cc1)C(=O)N[C@@H](CC(=O)O)C(=O)N[C@@H](C(C)(C)C)C(=O)N[C@H](C(N)=O)CSC4)[C@]1(C)O[C@H]1[C@H](C)[C@@H]1C[C@@](O)(NC(=O)O1)[C@H](OC)/C=C/C=C(\C)C2 (stereo partly drawn) [BT1718] ({X1-βAla}-[Sar][Sar][Sar][Sar][Sar][Sar][Sar][Sar][Sar][Sar]AC[dA]NE[1Nal][dA]CEDFYD[Tle]C-NH2; linker 12-18-25 via TBMB (inferred))
Body Weight ([1]; 1 mpk biw, day 0): 22.5 ± 0.7 g
Tumor Volume ([1]; 1 mpk biw, day 0): 188 ± 23 mm^3
Body Weight ([1]; 1 mpk biw, day 2): 22.8 ± 0.7 g
Tumor Volume ([1]; 1 mpk biw, day 2): 265 ± 53 mm^3
Body Weight ([1]; 1 mpk biw, day 4): 23.6 ± 0.6 g
Tumor Volume ([1]; 1 mpk biw, day 4): 428 ± 44 mm^3
Body Weight ([1]; 1 mpk biw, day 7): 24.2 ± 0.5 g
Tumor Volume ([1]; 1 mpk biw, day 7): 660 ± 85 mm^3
Body Weight ([1]; 1 mpk biw, day 9): 24.0 ± 0.5 g
Tumor Volume ([1]; 1 mpk biw, day 9): 793 ± 122 mm^3
Body Weight ([1]; 1 mpk biw, day 11): 24.3 ± 0.6 g
Tumor Volume ([1]; 1 mpk biw, day 11): 882 ± 118 mm^3
Body Weight ([1]; 1 mpk biw, day 14): 24.8 ± 0.4 g
Tumor Volume ([1]; 1 mpk biw, day 14): 1169 ± 137 mm^3
re-growth during dosing suspension ([1]; 2 months dosing suspension period): no re-growth
Body Weight ([1]; 3 mpk biw, day 0): 22.6 ± 1.0 g
Tumor Volume ([1]; 3 mpk biw, day 0): 190 ± 17 mm^3
Body Weight ([1]; 3 mpk biw, day 2): 23.2 ± 0.9 g
Tumor Volume ([1]; 3 mpk biw, day 2): 259 ± 34 mm^3
Body Weight ([1]; 3 mpk biw, day 4): 22.6 ± 1.0 g
Tumor Volume ([1]; 3 mpk biw, day 4): 296 ± 41 mm^3
Body Weight ([1]; 3 mpk biw, day 7): 22.8 ± 1.4 g
Tumor Volume ([1]; 3 mpk biw, day 7): 276 ± 77 mm^3
Body Weight ([1]; 3 mpk biw, day 9): 22.6 ± 1.6 g
Tumor Volume ([1]; 3 mpk biw, day 9): 323 ± 116 mm^3
Body Weight ([1]; 3 mpk biw, day 11): 23.2 ± 1.2 g
Tumor Volume ([1]; 3 mpk biw, day 11): 392 ± 126 mm^3
Body Weight ([1]; 3 mpk biw, day 14): 23.5 ± 1.1 g
Tumor Volume ([1]; 3 mpk biw, day 14): 527 ± 158 mm^3
Body Weight ([1]; 10 mpk biw, day 0): 23.1 ± 0.6 g
Tumor Volume ([1]; 10 mpk biw, day 0): 186 ± 30 mm^3
Body Weight ([1]; 10 mpk biw, day 2): 22.2 ± 1.1 g
Tumor Volume ([1]; 10 mpk biw, day 2): 221 ± 35 mm^3
Body Weight ([1]; 10 mpk biw, day 4): 23.2 ± 0.9 g
Tumor Volume ([1]; 10 mpk biw, day 4): 185 ± 20 mm^3
Body Weight ([1]; 10 mpk biw, day 7): 23.4 ± 0.8 g
Tumor Volume ([1]; 10 mpk biw, day 7): 142 ± 9 mm^3
Body Weight ([1]; 10 mpk biw, day 9): 22.9 ± 1.0 g
Tumor Volume ([1]; 10 mpk biw, day 9): 92 ± 2 mm^3
Body Weight ([1]; 10 mpk biw, day 11): 22.5 ± 1.2 g
Tumor Volume ([1]; 10 mpk biw, day 11): 84 ± 6 mm^3
Body Weight ([1]; 10 mpk biw, day 14): 23.8 ± 0.7 g
Tumor Volume ([1]; 10 mpk biw, day 14): 67 ± 11 mm^3
TGI ([1]; HCC1806, 1 mpk, biw, day 14): 8.6%
Tumor Volume ([1]; HCC1806, 1 mpk, biw, day 14): 1169 ± 137 mm^3
TGI ([1]; HCC1806, 3 mpk, biw, day 14): 68.6%
Tumor Volume ([1]; HCC1806, 3 mpk, biw, day 14): 527 ± 158 mm^3
TGI ([1]; HCC1806, 10 mpk, biw, day 14): 111.1%
Tumor Volume ([1]; HCC1806, 10 mpk, biw, day 14): 67 ± 11 mm^3
Best response at 10 mg/kg ([1]; HCC-1806, 10 mg/kg): CR
Minimally Effective Dose IV BIW ([1]; HCC-1806, dose leading to tumor-stasis): <10 mg/kg
tumor volume after regression ([1]; after 2-3 weeks 10 mg/kg biw): below 50 mm3
IC50 ([2]; ATP endpoint): 1 nM
relative cytotoxic activity versus BT1721 [2]: approximately ten-fold more active

Source: US10441663B2, “Methods for treating cancer” (Bicycle Therapeutics Limited, priority 2016, dated 2019)
